What was measured:
[1] = tested on: blackgrass; assay: Test B pre/postemergence blackgrass; assay type: in vivo, Alopecurus myosuroides
Outline: (§1)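 Test chemicals in a non-phytotoxic solvent mixture with surfactant were sprayed preemergence onto planted seeds and postemergence onto plants 2 to 18 cm tall (1- to 4-leaf stage). After twelve to sixteen days in a greenhouse, injury was visually rated against untreated controls from 0 (no effect) to 10 (complete control).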

[2] = tested on: smallflower flatsedge; assay: Test B flood test smallflower flatsedge; assay type: in vivo, Cyperus difformis; settings: for S. Flatsedge plant response rating: scale of 0 to 10 where 0 is no effect and 10 is complete control
Outline: (§2)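 Read-out is a visual response score from 0 (no effect) to 10 (complete control), assigned by comparison with untreated controls. Treatment was applied at the 2-leaf stage, and plants stayed in the greenhouse for twelve to sixteen days before scoring.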

[3] = tested on: morningglory; assay: Test B pre/postemergence morningglory; assay type: in vivo, Ipomoea hederacea
Outline: as §1

[4] = tested on: corn; assay: Test B pre/postemergence corn; assay type: in vivo, Zea mays
Outline: as §1

[5] = tested on: pigweed; assay: Test B pre/postemergence pigweed; assay type: in vivo, Amaranthus retroflexus
Outline: as §1

[6] = tested on: surinam grass; assay: Test B pre/postemergence surinam grass; assay type: in vivo, Brachiaria decumbens
Outline: as §1

[7] = tested on: wild oat; assay: Test B pre/postemergence wild oat; assay type: in vivo, Avena fatua
Outline: as §1

[8] = tested on: purple nutsedge; assay: Test B pre/postemergence purple nutsedge; assay type: in vivo, Cyperus rotundus
Outline: as §1

[9] = tested on: bamyardgrass; assay: Test B flood test barnyardgrass; assay type: in vivo, Echinochloa crus-galli
Outline: as §2

[10] = tested on: soybean; assay: Test B pre/postemergence soybean; assay type: in vivo, Glycine max
Outline: as §1

[11] = tested on: sugar beet; assay: Test B pre/postemergence sugar beet; assay type: in vivo, Beta vulgaris
Outline: as §1

[12] = tested on: rape; assay: Test B pre/postemergence rape; assay type: in vivo, Brassica napus
Outline: as §1

[13] = tested on: rice; assay: Test B flood test rice; assay type: in vivo, Oryza sativa
Outline: as §2

[14] = tested on: cocklebur; assay: Test B pre/postemergence cocklebur; assay type: in vivo, Xanthium strumarium
Outline: as §1

[15] = tested on: bedstraw; assay: Test B pre/postemergence bedstraw; assay type: in vivo, Galium aparine
Outline: as §1

[16] = tested on: velvetleaf; assay: Test B pre/postemergence velvetleaf; assay type: in vivo, Abutilon theophrasti
Outline: as §1

[17] = Postemergence, Rate 125 g/ha, scale of 0 to 10 where 0 is no effect and 10 is complete control
[18] = Preemergence, Rate 31 g/ha, visual rating, scale 0 to 10 (0 no effect, 10 complete control)
[19] = Preemergence, Rate 62 g/ha, scale 0 to 10 (0 no effect, 10 complete control)
[20] = Preemergence, Rate 125 g/ha, 0 is no effect, 10 is complete control
[21] = Preemergence, Rate 250 g/ha, scale 0 to 10, 0 is no effect, 10 is complete control
[22] = Rate 31 g/ha, Postemergence, scale 0 to 10
[23] = Rate 62 g/ha, Postemergence, scale of 0 to 10 where 0 is no effect and 10 is complete control
[24] = Rate 250 g/ha, Postemergence, scale 0 to 10, 0 is no effect, 10 is complete control
[25] = Rate 250 g/ha, Postemergence (flood test), scale 0 to 10, 0 is no effect, 10 is complete control
[26] = Postemergence (flood test species), Rate 125 g/ha, scale of 0 to 10 where 0 is no effect and 10 is complete control
[27] = Rate 31 g/ha, Postemergence section (flood test species), scale 0 to 10
[28] = Rate 62 g/ha, Postemergence section, flood test species, scale of 0 to 10 where 0 is no effect and 10 is complete control

## Cc1noc(C)c1-n1c(=O)on(C(=O)N(c2ccc(F)cc2)C(C)C)c1=O [Compound 155]
[1]; [17]
  Blackgrass plant response rating: 0
[1]; [18]
  Blackgrass plant response rating: 0
[1]; [19]
  Blackgrass plant response rating: 0
[1]; [20]
  Blackgrass plant response rating (0 to 10 scale): 0
[1]; [21]
  Blackgrass plant response rating: 2
[1]; [22]
  Blackgrass plant response rating: 0
[1]; [23]
  Blackgrass plant response rating: 0
[1]; [24]
  Plant response rating, Blackgrass: 2
[2]; Postemergence (flood test species), Rate 125 g/ha
  S. Flatsedge plant response rating: 0
[2]; Rate 62 g/ha, Postemergence section, flood test species
  S. Flatsedge plant response rating: 0
[2]; [25]
  Plant response rating, S. Flatsedge: 0
[3]; [17]
  Morningglory plant response rating: 0
[3]; [18]
  Morningglory plant response rating: 0
[3]; [19]
  Morningglory plant response rating: 0
[3]; [20]
  Morningglory plant response rating (0 to 10 scale): 0
[3]; [21]
  Morningglory plant response rating: 0
[3]; [22]
  Morningglory plant response rating: 0
[3]; [23]
  Morningglory plant response rating: 0
[3]; [24]
  Plant response rating, Morningglory: 2
[4]; [17]
  Corn plant response rating: 0
[4]; [18]
  Corn plant response rating: 0
[4]; [19]
  Corn plant response rating: 0
[4]; [20]
  Corn plant response rating (0 to 10 scale): 0
[4]; [21]
  Corn plant response rating: 0
[4]; [22]
  Corn plant response rating: 0
[4]; [23]
  Corn plant response rating: 0
[4]; [24]
  Plant response rating, Corn: 2
[5]; [17]
  Redroot pigweed plant response rating: 0
[5]; [18]
  Redroot pigweed plant response rating: 0
[5]; [19]
  Redroot pigweed plant response rating: 0
[5]; [20]
  Redroot pigweed plant response rating (0 to 10 scale): 0
[5]; [21]
  Redroot pigweed plant response rating: 3
[5]; [22]
  Redroot pigweed plant response rating: 0
[5]; [23]
  Redroot pigweed plant response rating: 0
[5]; [24]
  Plant response rating, Redroot pigweed: 0
[6]; [17]
  B. signalgrass plant response rating: 0
[6]; [18]
  B. signalgrass plant response rating: 0
[6]; [19]
  B. signalgrass plant response rating: 0
[6]; [20]
  B. signalgrass plant response rating (0 to 10 scale): 0
[6]; [21]
  B. signalgrass plant response rating: 0
[6]; [22]
  B. signalgrass plant response rating: 0
[6]; [23]
  B. signalgrass plant response rating: 0
[6]; [24]
  Plant response rating, B. signalgrass: 0
[7]; [18]
  Wild oats plant response rating: 0
[7]; [19]
  Wild oats plant response rating: 0
[7]; [20]
  Wild oats plant response rating (0 to 10 scale): 0
[7]; [21]
  Wild oats plant response rating: 0
[7]; [23]
  Wild oats plant response rating: 0
[7]; [24]
  Plant response rating, Wild oats: 0
[8]; [17]
  Nutsedge plant response rating: 0
[8]; [18]
  Nutsedge plant response rating: 0
[8]; [19]
  Nutsedge plant response rating: 0
[8]; [20]
  Nutsedge plant response rating (0 to 10 scale): 0
[8]; [21]
  Nutsedge plant response rating: 0
[8]; [22]
  Nutsedge plant response rating: 0
[8]; [23]
  Nutsedge plant response rating: 0
[8]; [24]
  Plant response rating, Nutsedge: 0
[9]; [26]
  Barnyardgrass plant response rating: 0
[9]; [27]
  Barnyardgrass plant response rating: 0
[9]; [28]
  Barnyardgrass plant response rating: 0
[9]; [25]
  Plant response rating, Barnyardgrass: 0
[10]; [17]
  Soybean plant response rating: 1
[10]; [18]
  Soybean plant response rating: 0
[10]; [19]
  Soybean plant response rating: 0
[10]; [20]
  Soybean plant response rating (0 to 10 scale): 0
[10]; [21]
  Soybean plant response rating: 0
[10]; [23]
  Soybean plant response rating: 1
[10]; [24]
  Plant response rating, Soybean: 1
[11]; [17]
  Sugarbeets plant response rating: 0
[11]; [18]
  Sugarbeets plant response rating: 0
[11]; [19]
  Sugarbeets plant response rating: 0
[11]; [20]
  Sugarbeets plant response rating (0 to 10 scale): 0
[11]; [21]
  Sugarbeets plant response rating: 0
[11]; [23]
  Sugarbeets plant response rating: 0
[11]; [24]
  Plant response rating, Sugarbeets: 0
[12]; [17]
  Rape plant response rating: 0
[12]; [18]
  Rape plant response rating: 0
[12]; [19]
  Rape plant response rating: 0
[12]; [20]
  Rape plant response rating (0 to 10 scale): 0
[12]; [21]
  Rape plant response rating: 0
[12]; [22]
  Rape plant response rating: 0
[12]; [23]
  Rape plant response rating: 0
[12]; [24]
  Plant response rating, Rape: 0
[13]; [26]
  Rice plant response rating: 0
[13]; [27]
  Rice plant response rating: 0
[13]; [28]
  Rice plant response rating: 0
[13]; [25]
  Plant response rating, Rice: 0
[14]; [17]
  Cocklebur plant response rating: 0
[14]; [18]
  Cocklebur plant response rating: 0
[14]; [19]
  Cocklebur plant response rating: 0
[14]; [20]
  Cocklebur plant response rating (0 to 10 scale): 0
[14]; [21]
  Cocklebur plant response rating: 0
[14]; [22]
  Cocklebur plant response rating: 0
[14]; [23]
  Cocklebur plant response rating: 0
[14]; [24]
  Plant response rating, Cocklebur: 0
[15]; [17]
  Bedstraw plant response rating: 0
[15]; [18]
  Bedstraw plant response rating: 0
[15]; [19]
  Bedstraw plant response rating: 0
[15]; [20]
  Bedstraw plant response rating (0 to 10 scale): 0
[15]; [21]
  Bedstraw plant response rating: 0
[15]; [22]
  Bedstraw plant response rating: 0
[15]; [23]
  Bedstraw plant response rating: 0
[15]; [24]
  Plant response rating, Bedstraw: 0
[16]; [18]
  Velvetleaf plant response rating: 0
[16]; [19]
  Velvetleaf plant response rating: 0
[16]; [20]
  Velvetleaf plant response rating (0 to 10 scale): 0
[16]; [21]
  Velvetleaf plant response rating: 0
[16]; [23]
  Velvetleaf plant response rating: 0
[16]; [24]
  Plant response rating, Velvetleaf: 0

Reference: US6737383B1, “Herbicidal oxadiazolidines” (priority 1999, dated 2004)
